Laboratory results taken from US4323559A, “Compounds derived from N-acetyl-nor-muramyl-L-alanyl-D-isoglutamic acid and other compounds and biologically active compositions containing such compounds” (Agencie Nationale de Valorisation de la Recherche (ANVAR), priority 1973, dated 1982).

Legend:
Klebsiella pneumoniae = assay: Anti-infectious protection of mice against Klebsiella pneumoniae infection; format: in vivo; settings: compound iv. 100 μg at -24 h; for % protection: difference of % survivors vs controls; for % survival D + 3 / % survival D + 5 / % survival D + 10: mice
[1] = tested on: bovine serum albumin (BSA); assay: Adjuvant activity in aqueous phase: anti-albumin antibody titer by passive hemagglutination; format: in vivo, Swiss mice; settings: S.C., 100 μg with BSA 0.5 mg/animal in isotonic saline; for Titer of antibody 28th day: Swiss mice; for Titer of antibody 34th day / Titer of antibody 36th day: booster 0.1 mg BSA at day 30
Protocol: In the series of tests of which the results are indicated hereafter, the influence of the active principle according to the invention was assessed as bearing on the anti-albumin antibody rate, particularly under the following conditions. Groups of 8 two-month-old Swiss mice received by subcutaneous injection (SC) or orally (PO) 0.5 mg of antigen constituted by the bovine serum albumin (BSA) with or without the substance tested in an isotonic saline solution. This large dose of antigen, because of its closeness to the limit paralysing dose with respect to the immunising response, elicits but a weak or no immune response in the controls; it therefore constitutes a severe criterion for showing the activity of an adjuvant substance. […] The proportion of antibody was determined by passive hemagglutination by using sheep red blood cells treated with formalin and coated with the antigen studied according to the method described by […] and […]. Immunol., 100, 641-648, 1968). Blood samples were taken 14, 28, 34 and 36 days after the first injection.

## CC(=O)N[C@H]1C(O)O[C@H](COC(C)=O)[C@@H](OC(C)=O)[C@@H]1O[C@H](C)C(=O)N[C@@H](C)C(=O)N[C@H](CCC(=O)O)C(N)=O (stereo partly drawn) [4,6-di-O-acetyl-Mur-NAc-L-Ala-D-Glu (OH)-NH2]
Klebsiella pneumoniae; K. pneumoniae im. 2 × 10^4
  % protection: 47%
  % survival D + 3: 97%
  % survival D + 5: 84%
  % survival D + 10: 63%

## CC(=O)N[C@H]1C(O)O[C@H](COC(=O)CCC(=O)O)[C@@H](O)[C@@H]1O[C@H](C)C(=O)N[C@@H](C)C(=O)N[C@H](CCC(=O)O)C(N)=O (stereo partly drawn) [6-O-succinyl-Mur-NAc-L-Ala-D-Glu, (OH)-NH2]
Klebsiella pneumoniae; K. pneumoniae im. 2 × 10^4
  % protection: 44%
  % survival D + 3: 100%
  % survival D + 5: 91%
  % survival D + 10: 63%

## CC(=O)N[C@@H]1[C@@H](O[C@H](C)C(=O)N[C@@H](C)C(=O)N[C@H](CCC(=O)O)C(N)=O)[C@H](O)[C@@H](CO)O[C@H]1O [Mur-NAc-L-Ala-D-Glu(OH)--NH2, Mur-NAc-L-Ala-D-Glu(OH)-NH2, reference compound]
[1]
  Titer of antibody 28th day: 25
  Titer of antibody 34th day: 50
  Titer of antibody 36th day: 400
Klebsiella pneumoniae; K. pneumoniae im. 1,5 × 10^4
  % protection: 47%
  % survival D + 3: 83%
  % survival D + 5: 66%
  % survival D + 10: 60%

## CC(=O)N[C@H]1C(O)O[C@H](CO)[C@@H](O)[C@@H]1OCC(=O)N[C@@H](C)C(=O)N[C@H](CCC(=O)O)C(N)=O (stereo partly drawn) [norMur-NAc-L-Ala-D-Glu(OH)-NH2, 2-(2-acetamido-2-deoxy-3-O-D-glucopyranosyl)-acetyl-L-alanyl-D-isoglutamine]
[1]
  Titer of antibody 28th day: 25
  Titer of antibody 34th day: 50
  Titer of antibody 36th day: 350
Klebsiella pneumoniae; K. pneumoniae im. 1,5 × 10^4
  % protection: 47%
  % survival D + 3: 78%
  % survival D + 5: 64%
  % survival D + 10: 60%
